The text below walks through data of ChEMBL document CHEMBL5338722, “Optical-Controlled Kinetic Switch: Fine-Tuning of the Residence Time of an Antagonist Binding to the Vasopressin V2 Receptor in In Vitro, Ex Vivo, and In Vivo Models of ADPKD” (J Med Chem, 2023).

Broadly, the Ki is a dissociation constant, usually derived from enzyme kinetics or from competition with a known ligand. What is called inhibition is how much of the control response was suppressed.

Active and inactive are the calls of the source. The calls are words filed in the database; no cut-off is given here.

The target in data set [1] is T1, Vasopressin V2 receptor (Homo sapiens, UniProt P30518). Put plainly: Displacement of conivaptan-red fluorescent probe from SNAP-tagged human vasopressin V2 receptor expressed in HEK293 cells compound pre-illuminated for 10 mins with light at 435 nm and further incubated for 1 hr by HTRF assay. Format: cell-based.
Data set [2] deals with T1, Vasopressin V2 receptor. Put plainly: Displacement of conivaptan-red fluorescent probe from SNAP-tagged human vasopressin V2 receptor expressed in HEK293 cells compound pre-illuminated for 10 mins with light at 365 nm and further incubated for 1 hr by HTRF assay. It is filed as cell-based.
Data set [3] can be described thus: Drug uptake in Sprague-Dawley rat kidney at 0.1 uM treated for 30 mins followed by extensive drug wash-out for 4 hrs by LC-MS analysis. Format: ADME, tissue-based. To be noted: in vivo, 0.5 h.
The test system of data set [4] is Kidney. Put plainly: Ex vivo target occupancy at vasopressin V2 receptor in Sprague-Dawley rat kidney assessed as endurance in retention time by measuring half life at 0.1 uM treated for 30 mins followed by extensive drug wash-out for 240 mins by LC-MS analysis. Format: functional, tissue-based.
Data set [5] has as its target T1, Vasopressin V2 receptor. Put plainly: Displacement of conivaptan-red fluorescent probe from SNAP-tagged human vasopressin V2 receptor expressed in HEK293 cells assessed as residence time at 1 uM compound pre-illuminated for 10 mins with light at 435 nm by dual-point competition association assay. Format: cell-based. To be noted: filed as antagonist.
Data set [6] addresses T1, Vasopressin V2 receptor. Put plainly: Displacement of conivaptan-red fluorescent probe from SNAP-tagged human vasopressin V2 receptor expressed in HEK293 cells assessed as on-rate constant at 1 uM compound pre-illuminated for 10 mins with light at 435 nm by dual-point competition association assay. It is filed as cell-based. To be noted: filed as antagonist.
The target in data set [7] is T1, Vasopressin V2 receptor. The data set can be described thus: Displacement of conivaptan-red fluorescent probe from SNAP-tagged human vasopressin V2 receptor expressed in HEK293 cells assessed as off-rate constant at 1 uM compound pre-illuminated for 10 mins with light at 435 nm by dual-point competition association assay. It is filed as cell-based. To be noted: filed as antagonist.

Data set [8] addresses T1, Vasopressin V2 receptor. Put plainly: Antagonist activity at human vasopressin V2 receptor expressed in CHO cells assessed as inhibition of AVP-induced cAMP production at 1 uM preincubated for 30 mins followed by two consecutive washouts and irradiated with light at 365 nm during two washouts. Format: functional, cell-based. To be noted: filed as antagonist. On the technique in general: Changes in cAMP serve as a functional read-out for many G protein-coupled receptors.

Data set [9] deals with T1, Vasopressin V2 receptor. The data set can be described thus: Displacement of conivaptan-red fluorescent probe from SNAP-tagged human vasopressin V2 receptor expressed in HEK293 cells assessed as kinetic rate index by measuring ratio of binding of labeled probe at 15 mins to 60 mins at IC50 compound pre-illuminated for 10 mins with light at 435 nm by dual-point competition association assay. To be noted: filed as antagonist. Format: cell-based.

Data set [10] concerns the target Vasopressin V1a receptor (Homo sapiens) (UniProt P37288). Put plainly: Displacement of [3H]vasopressin from human V1A receptor expressed in CHO cell membranes at 1 uM compound pre-illuminated for 10 mins with light at 435 nm by radioligand displacement assay relative to control. To be noted: Membrane. For orientation: In a radioligand displacement assay an active substance lowers the binding of a labelled ligand.

The subject of data set [11] is Kidney. Put plainly: Ex vivo inhibition of renal cystogenesis in ADPKD C57BL/6 mouse kidney assessed as suppression of 8-Br-cAMP-induced cyst development at 10 uM measured after 4 days in presence of 8-Br-cAMP by inverted microscopic analysis. Format: functional, tissue-based. To be noted: time 4.0 day.
The subject of the next data set is Mus musculus. The data set can be described thus: In vivo inhibition of renal cystogenesis in Pkd1 knock-out autosomal dominant polycystic kidney disease mouse model assessed as reduction in kidney size at 5 mg/kg, sc administered once daily for 7 days compound pre-irradiated with light at 435 nm prior to administration. Format: functional, organism-based. To be noted: time 7.0 day.

Data set [12] addresses T1, Vasopressin V2 receptor. Put plainly: Antagonist activity at human vasopressin V2 receptor expressed in CHO cells assessed as inhibition of vasopressin induced cAMP production at 10 times Ki preincubated for 30 mins followed by two consecutive washouts and irradiated with light at 365 nm during two washouts. Format: functional, cell-based. To be noted: filed as antagonist.

A short description of data set [13]: In vivo inhibition of renal cystogenesis in Pkd1 knock-out autosomal dominant polycystic kidney disease mouse model assessed as disease progression at 5 mg/kg, sc administered once daily for 7 days compound pre-irradiated with light at 435 nm prior to administration. Format: functional. Further details: scale not given: the % may be the effect or the level left. To be noted: time 7 day.

T1 sequence (P30518 whole entry): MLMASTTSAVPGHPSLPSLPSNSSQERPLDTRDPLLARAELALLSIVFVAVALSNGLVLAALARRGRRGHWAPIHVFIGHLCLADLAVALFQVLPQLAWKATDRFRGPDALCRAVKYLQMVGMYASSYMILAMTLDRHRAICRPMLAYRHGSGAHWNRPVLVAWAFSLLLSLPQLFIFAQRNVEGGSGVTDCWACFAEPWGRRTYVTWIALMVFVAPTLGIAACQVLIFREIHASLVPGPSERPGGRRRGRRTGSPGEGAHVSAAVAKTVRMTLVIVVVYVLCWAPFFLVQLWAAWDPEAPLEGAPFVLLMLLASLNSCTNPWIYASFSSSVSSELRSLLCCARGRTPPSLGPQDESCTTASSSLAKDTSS
Chain of Vasopressin V1a receptor (Homo sapiens) (P37288 whole entry, looked up): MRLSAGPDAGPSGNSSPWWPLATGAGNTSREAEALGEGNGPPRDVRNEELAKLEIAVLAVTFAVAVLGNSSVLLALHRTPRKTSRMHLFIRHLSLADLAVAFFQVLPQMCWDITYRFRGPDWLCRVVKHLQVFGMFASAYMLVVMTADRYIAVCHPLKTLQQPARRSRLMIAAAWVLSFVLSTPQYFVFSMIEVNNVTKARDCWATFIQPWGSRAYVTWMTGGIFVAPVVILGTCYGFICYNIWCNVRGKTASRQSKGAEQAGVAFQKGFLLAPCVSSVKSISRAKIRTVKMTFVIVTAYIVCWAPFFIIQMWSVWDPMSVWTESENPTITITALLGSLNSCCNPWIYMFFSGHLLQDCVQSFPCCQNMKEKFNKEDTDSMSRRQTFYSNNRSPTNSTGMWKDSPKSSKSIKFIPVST

The compound `O=C(c1ccc(/N=N/c2ccccc2)cc1Cl)N1Cc2cccn2Cc2ccccc21` registered a Ki at Vasopressin V2 receptor [1] of 289 nM.
Compound `O=C(c1ccc(/N=N/c2ccc(C(F)(F)F)cc2)cc1Cl)N1Cc2cccn2Cc2ccccc21` showed a Ki on Vasopressin V2 receptor [1] of 589 nM.
For the compound `Cc1ccc(F)cc1/N=N\c1ccc(C(=O)N2Cc3cccn3Cc3ccccc32)c(Cl)c1`, the Ki on Vasopressin V2 receptor [2] was found to be 1700 nM.
`Cc1cccc(/N=N/c2ccc(C(=O)N3Cc4cccn4Cc4ccccc43)c(Cl)c2)c1` yielded a Ki at Vasopressin V2 receptor [1] of 355 nM.
In turn, `O=C(c1ccc(/N=N/c2ccccc2-c2ccccc2)cc1Cl)N1Cc2cccn2Cc2ccccc21` gave a Ki at Vasopressin V2 receptor [1] of 279 nM.
Regarding `Cc1ccc(/N=N/c2ccc(C(=O)N3Cc4cccn4Cc4ccccc43)c(Cl)c2)cc1`, the Drug uptake in data set [3] was found to be 10 nM. For the same compound, in the data set with Kidney [4], the T1/2 was determined as 29 min. In addition, at Vasopressin V2 receptor [5], the TIME was determined as 0.25 h. Also, the results for the K on Vasopressin V2 receptor [6] and on Vasopressin V2 receptor [7] were 1.1 10^5/M/min and 0.068 min⁻¹, respectively. Further, the Ki on Vasopressin V2 receptor [1] amounted to 281 nM. Further, the inhibition entry on Vasopressin V2 receptor [8], with Kidney [11], in the data set with Mus musculus and at Vasopressin V2 receptor [12] was “Active” in each case. Also, the Ratio on Vasopressin V2 receptor [9] worked out at 0.95. This compound also showed an inhibition in data set [10] of less than 40%. The Activity in [13] was 18.2%.
`O=C(c1ccc(/N=N\c2ccccc2-c2ccccc2)cc1Cl)N1Cc2cccn2Cc2ccccc21` displayed a Ki on Vasopressin V2 receptor [2] of 787 nM.
Take `O=C(c1ccc(/N=N/c2cccc(-c3ccccc3)c2)cc1Cl)N1Cc2cccn2Cc2ccccc21`: the Ki on Vasopressin V2 receptor [1] turned out to be 2180 nM.
On Vasopressin V2 receptor [2], `O=C(c1ccc(/N=N\c2cccc(-c3ccccc3)c2)cc1Cl)N1Cc2cccn2Cc2ccccc21` displayed a Ki of 663 nM.
On to `Cc1ccccc1/N=N/c1ccc(C(=O)N2Cc3cccn3Cc3ccccc32)c(Cl)c1`, for which the affinity at Vasopressin V2 receptor [1], expressed as Ki, was 432 nM.
